{"source": "patent US20090062406A1", "about": "“Aqueous concentrates of isethionate, taurate and betaine” (Clariant International Ltd., priority 2007, published 2009)", "origin": "cited, not measured here", "details": "20° C."}
{"substance": "sodium methyl cocoyl taurate", "values": [{"measurement": "Solubility in water", "result": 10000, "unit": "µg/mL"}]}
